From patent publication US11584714B2 (priority 2018, dated 2023) come the findings set out here.

Holding throughout (assay type): biochemical
In one test the target is MASP-2 (CCP1-CCP2-SP) (Homo sapiens (Human), UniProt O00187). Put plainly: biochemical. The conditions noted are these: for MASP-2 vs. thrombin selectivity: selectivity for MASP-2 inhibition versus thrombin.
Another test has as its target mMASP-2 (Mus musculus (Mouse), UniProt Q91WP0). Put plainly: Enzymatic inhibition of mMASP-2. The conditions noted are these: read-out: mMASP-2 Ki.
The next test deals with human α-thrombin (Homo sapiens (Human), UniProt P00734). Put plainly: Enzymatic assay for thrombin (Boc-VPR-AMC substrate).

Counter-ions that a name gives are not always drawn. Like-named read-outs stand apart in the source and are kept apart here.

Chain of mMASP-2 (Q91WP0 20-685): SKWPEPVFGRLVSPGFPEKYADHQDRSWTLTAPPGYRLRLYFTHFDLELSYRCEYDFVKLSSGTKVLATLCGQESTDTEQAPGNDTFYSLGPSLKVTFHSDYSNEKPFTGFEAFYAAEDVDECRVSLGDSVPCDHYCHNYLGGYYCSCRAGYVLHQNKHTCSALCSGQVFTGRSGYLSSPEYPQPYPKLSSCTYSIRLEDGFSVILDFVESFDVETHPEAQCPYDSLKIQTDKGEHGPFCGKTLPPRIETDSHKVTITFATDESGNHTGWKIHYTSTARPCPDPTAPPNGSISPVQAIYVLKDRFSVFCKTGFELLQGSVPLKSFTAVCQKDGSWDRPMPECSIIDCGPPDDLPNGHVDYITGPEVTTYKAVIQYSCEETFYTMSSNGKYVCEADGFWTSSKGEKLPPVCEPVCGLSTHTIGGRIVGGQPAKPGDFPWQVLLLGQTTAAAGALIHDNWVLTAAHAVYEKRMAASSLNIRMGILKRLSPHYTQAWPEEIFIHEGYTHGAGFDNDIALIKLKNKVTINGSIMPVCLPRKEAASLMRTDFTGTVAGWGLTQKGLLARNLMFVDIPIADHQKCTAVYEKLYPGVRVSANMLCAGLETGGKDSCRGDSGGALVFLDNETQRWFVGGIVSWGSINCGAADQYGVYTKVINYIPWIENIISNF
Chain of MASP-2 (CCP1-CCP2-SP) (O00187 445-686): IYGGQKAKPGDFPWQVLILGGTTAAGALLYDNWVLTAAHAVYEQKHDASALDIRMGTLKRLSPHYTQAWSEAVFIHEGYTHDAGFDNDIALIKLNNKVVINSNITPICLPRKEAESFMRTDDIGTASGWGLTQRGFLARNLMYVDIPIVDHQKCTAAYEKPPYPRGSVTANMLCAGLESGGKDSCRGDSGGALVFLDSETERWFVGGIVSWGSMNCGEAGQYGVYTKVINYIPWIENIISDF

As for `Cc1nc(N)ccc1CNC(=O)[C@H](C)NC(=O)[C@H]1C[C@@H](CCc2ccccc2)CN1` [compound 1322, (2R,4R)—N—((S)-1-(((6-Amino-2-methylpyridin-3-yl)methyl)amino)-1-oxopropan-2-yl)-4-phenethylpyrrolidine-2-carboxamide Dihydrochloride], the inhibition constant (Ki) (in general, the dissociation constant of the complex between target and ligand, obtained from inhibition or displacement) at MASP-2 (CCP1-CCP2-SP) (read-out: MASP-2 Ki) was less than 500 nM; on mMASP-2, 500 to 2500 nM; on human α-thrombin (Thrombin Ki (μM)), 10 to 25 µM. The “MASP-2 vs. thrombin selectivity” value at MASP-2 (CCP1-CCP2-SP) was “*** (≥25 to <100-fold)”.

Consider `CCc1nc(N)ccc1CNC(=O)[C@H](C)NC(=O)[C@H]1C[C@H](c2ccccc2)CN1` [compound 1323, (2R,4R)—N—((S)-1-(((6-Amino-2-ethylpyridin-3-yl)methyl)amino)-1-oxopropan-2-yl)-4-phenylpyrrolidine-2-carboxamide Dihydrochloride], for which the Ki at MASP-2 (CCP1-CCP2-SP) (read-out: MASP-2 Ki) was greater than 25000 nM; at mMASP-2 it was 10000 to 25000 nM; at human α-thrombin (read-out: Thrombin Ki), greater than 25 µM.

`N=C(N)c1ccc(CNC(=O)[C@H](Cc2ccc(O)cc2)NC(=O)[C@H](N)CCc2ccccc2)cc1` [compound 1326, (R)-2-Amino-N—((S)-1-((4-carbamimidoylbenzyl)amino)-3-(4-hydroxyphenyl)-1-oxopropan-2-yl)-4-phenylbutanamide Di-trifluoroacetate salt]: the inhibitory constant (Ki) at MASP-2 (CCP1-CCP2-SP) (read-out: MASP-2 Ki) was less than 500 nM; at mMASP-2, less than 500 nM; at human α-thrombin (Thrombin Ki (μM)), 10 to 25 µM. Besides, the “MASP-2 vs. thrombin selectivity” value on MASP-2 (CCP1-CCP2-SP) is “*** (≥25 to <100-fold)”.

Turning to `C[C@H](NC(=O)[C@@H](CCc1ccccc1)NCCc1ccc(O)cc1)C(=O)NCc1ccc(C(=N)N)cc1` [compound 1327, (R)—N—((S)-1-((4-Carbamimidoylbenzyl)amino)-1-oxopropan-2-yl)-2-((4-hydroxyphenethyl)amino)-4-phenylbutanamide dihydrochloride], the Ki is less than 500 nM on MASP-2 (CCP1-CCP2-SP) (read-out: MASP-2 Ki), less than 500 nM at mMASP-2 and less than 0.5 µM at human α-thrombin (read-out: Thrombin Ki). Also, at MASP-2 (CCP1-CCP2-SP), the “MASP-2 vs. thrombin selectivity” value is on record as “*** (≥25 to <100-fold)”.

`C[C@H](NC(=O)[C@H]1C[C@H](c2ccccc2)CN1)C(=O)NCc1cnc2[nH]cc(Cl)c2c1` [compound 1329, (2R,4R)—N—((S)-1-(((3-chloro-1H-pyrrolo[2,3-b]pyridin-5-yl)methyl)amino)-1-oxopropan-2-yl)-4-phenylpyrrolidine-2-carboxamide Dihydrochloride]: the values for the Ki at MASP-2 (CCP1-CCP2-SP) (read-out: MASP-2 Ki), at mMASP-2 and on human α-thrombin (Thrombin Ki (μM)) were less than 500 nM, less than 500 nM and 0.5 to 2.5 µM, respectively. Moreover, the “MASP-2 vs. thrombin selectivity” value on MASP-2 (CCP1-CCP2-SP) was “* (≥1.0 to <5.0-fold)”.

With `C[C@H](NC(=O)[C@@H](CCc1ccccc1)NCCc1cccc(O)c1)C(=O)NCc1ccc(C(=N)N)cc1` [compound 1330, (R)—N—((S)-1-((4-Carbamimidoylbenzyl)amino)-1-oxopropan-2-yl)-2-((3-hydroxyphenethyl)amino)-4-phenylbutanamide Di-trifluoroacetate salt], the results for the inhibitory constant (Ki) at MASP-2 (CCP1-CCP2-SP) (read-out: MASP-2 Ki), at mMASP-2 and at human α-thrombin (read-out: Thrombin Ki) were less than 500 nM, less than 500 nM and less than 0.5 µM, respectively. For the same compound, the “MASP-2 vs. thrombin selectivity” value at MASP-2 (CCP1-CCP2-SP) is “*** (≥25 to <100-fold)”.

In the case of `N=C(N)c1ccc(CNC(=O)[C@H](Cc2cnc[nH]2)NC(=O)[C@H](N)CCc2ccccc2)cc1` [compound 1332, (R)-2-Amino-N—((S)-1-((4-carbamimidoylbenzyl)amino)-3-(1H-imidazol-5-yl)-1-oxopropan-2-yl)-4-phenylbutanamide Di-trifluoroacetate], the Ki is 10000 to 25000 nM at MASP-2 (CCP1-CCP2-SP), 2500 to 10000 nM at mMASP-2 and greater than 25 µM at human α-thrombin (read-out: Thrombin Ki).

As for `Cc1cc(Cl)cc(CNC(=O)[C@H](C)NC(=O)[C@H]2C[C@H](c3ccccc3)CN2)c1` [compound 1333, (2R,4R)—N—((S)-1-((3-Chloro-5-methylbenzyl)amino)-1-oxopropan-2-yl)-4-phenylpyrrolidine-2-carboxamide Hydrochloride], the figures for the Ki at MASP-2 (CCP1-CCP2-SP), at mMASP-2 and on human α-thrombin (read-out: Thrombin Ki) were 2500 to 10000 nM, 10000 to 25000 nM and greater than 25 µM, respectively.

For the compound `N=C(N)c1ccc(CNC(=O)[C@H](CCC(N)=O)NC(=O)[C@H](N)CCc2ccccc2)cc1` [compound 1335, (S)-2-((R)-2-Amino-4-phenylbutanamido)-N-(4-carbamimidoylbenzyl)pentanediamide Di-trifluoroacetate], the inhibitory constant (Ki) was less than 500 nM on MASP-2 (CCP1-CCP2-SP) (read-out: MASP-2 Ki), less than 500 nM on mMASP-2 and 2.5 to 10 µM at human α-thrombin (Thrombin Ki (μM)). Also, the “MASP-2 vs. thrombin selectivity” value on MASP-2 (CCP1-CCP2-SP) is “*** (≥25 to <100-fold)”.

In the case of `C[C@H](NC(=O)[C@H]1C[C@H](c2ccccc2)CN1)C(=O)NCc1cc(N)n[nH]1` [compound 1336, (2R,4R)—N—((S)-1-(((3-Amino-1H-pyrazol-5-yl)methyl)amino)-1-oxopropan-2-yl)-4-phenylpyrrolidine-2-carboxamide Dihydrochloride], the Ki on MASP-2 (CCP1-CCP2-SP) was 10000 to 25000 nM; on mMASP-2 it was greater than 25000 nM; on human α-thrombin (read-out: Thrombin Ki), greater than 25 µM.

Regarding `Cc1nc(N)ccc1CNC(=O)[C@H](C)NC(=O)[C@H]1C[C@H](Cc2ccc3ccccc3c2)CN1` [compound 1338, (2R,4S)—N—((S)-1-(((6-Amino-2-methylpyridin-3-yl)methyl)amino)-1-oxopropan-2-yl)-4-(naphthalen-2-ylmethyl)pyrrolidine-2-carboxamide Dihydrochloride], the Ki at MASP-2 (CCP1-CCP2-SP) (read-out: MASP-2 Ki) is less than 500 nM; at mMASP-2, less than 500 nM; at human α-thrombin (read-out: Thrombin Ki), greater than 25 µM. In addition, the “MASP-2 vs. thrombin selectivity” value at MASP-2 (CCP1-CCP2-SP) is reported as “**** (≥100-fold)”.

`C[C@H](NC(=O)[C@@H](CCc1ccccc1)NCCc1ccccc1)C(=O)NCc1ccc(C(=N)N)cc1` [compound 1340, (R)—N—((S)-1-((4-Carbamimidoylbenzyl)amino)-1-oxopropan-2-yl)-2-(phenethylamino)-4-phenylbutanamide Dihydrochloride]: the inhibition constant (Ki) is less than 500 nM at MASP-2 (CCP1-CCP2-SP) (read-out: MASP-2 Ki), less than 500 nM at mMASP-2 and less than 0.5 µM on human α-thrombin (read-out: Thrombin Ki). At MASP-2 (CCP1-CCP2-SP), the “MASP-2 vs. thrombin selectivity” value was “** (≥5.0 to <25-fold)”.

As to `C[C@H](NC(=O)[C@H](N)CCc1ccccc1)C(=O)NCc1cc(Cl)ccc1-n1cncn1` [compound 1341, (R)-2-amino-N—((S)-1-((5-chloro-2-(1H-1,2,4-triazol-1-yl)benzyl)amino)-1-oxopropan-2-yl)-4-phenylbutanamide], the Ki is 10000 to 25000 nM at MASP-2 (CCP1-CCP2-SP), greater than 25000 nM at mMASP-2 and 0.5 to 2.5 µM at human α-thrombin (Thrombin Ki (μM)). Moreover, the “MASP-2 vs. thrombin selectivity” value on MASP-2 (CCP1-CCP2-SP) was “−− (<1.0-fold)”.

Consider `C[C@H](NC(=O)[C@H](N)CCc1ccccc1)C(=O)NCc1cccnc1N` [compound 1346, (R)-2-Amino-N—((S)-1-(((2-aminopyridin-3-yl)methyl)amino)-1-oxopropan-2-yl)-4-phenylbutanamide Dihydrochloride], for which the Ki at MASP-2 (CCP1-CCP2-SP) is 10000 to 25000 nM; at mMASP-2, greater than 25000 nM; at human α-thrombin (read-out: Thrombin Ki), greater than 25 µM.

Take `Cc1nc(N)ccc1CNC(=O)[C@H](C)NC(=O)[C@@H](CCc1ccccc1)NCCc1cccc(O)c1` [compound 1349, (R)—N—((S)-1-(((6-Amino-2-methylpyridin-3-yl)methyl)amino)-1-oxopropan-2-yl)-2-((3-hydroxyphenethyl)amino)-4-phenylbutanamide Dihydrochloride]: the inhibitory constant (Ki) at MASP-2 (CCP1-CCP2-SP) is 500 to 2500 nM; at mMASP-2, 2500 to 10000 nM; on human α-thrombin (read-out: Thrombin Ki) it was greater than 25 µM. In addition, at MASP-2 (CCP1-CCP2-SP), the “MASP-2 vs. thrombin selectivity” value is reported as “** (≥5.0 to <25-fold)”.

For the compound `Cc1nc(N)ccc1CNC(=O)[C@H](C)NC(=O)[C@H]1C[C@H](Cc2ccc(-c3ccccc3)cc2)CN1` [compound 1351, (2R,4S)-4-([1,1′-Biphenyl]-4-ylmethyl)-N-((S)-1-(((6-amino-2-methylpyridin-3-yl)methyl)amino)-1-oxopropan-2-yl)pyrrolidine-2-carboxamide Dihydrochloride], the Ki at MASP-2 (CCP1-CCP2-SP) (read-out: MASP-2 Ki) is less than 500 nM; at mMASP-2 it was less than 500 nM; at human α-thrombin (read-out: Thrombin Ki), greater than 25 µM. At MASP-2 (CCP1-CCP2-SP), the “MASP-2 vs. thrombin selectivity” value is “**** (≥100-fold)”.

For the compound `Cc1nc(N)ccc1CNC(=O)[C@H](C)NC(=O)[C@@H]1C[C@H](Cc2ccccc2)CCN1` [compound 1354, (2S,4R)—N—((S)-1-(((6-Amino-2-methylpyridin-3-yl)methyl)amino)-1-oxopropan-2-yl)-4-benzylpiperidine-2-carboxamide Dihydrochloride], the Ki on MASP-2 (CCP1-CCP2-SP) (read-out: MASP-2 Ki) was less than 500 nM; on mMASP-2 it was 500 to 2500 nM; at human α-thrombin (Thrombin Ki (μM)), 2.5 to 10 µM. The “MASP-2 vs. thrombin selectivity” value on MASP-2 (CCP1-CCP2-SP) is listed as “*** (≥25 to <100-fold)”.

With `Cc1cc(Br)cc(CNC(=O)[C@H](C)NC(=O)[C@H](N)CCc2ccccc2)c1O` [compound 1355, (R)-2-amino-N—((S)-1-((5-bromo-2-hydroxy-3-methylbenzyl)amino)-1-oxopropan-2-yl)-4-phenylbutanamide Trifluoroacetate salt], the figures for the Ki on MASP-2 (CCP1-CCP2-SP) (read-out: MASP-2 Ki), on mMASP-2 and on human α-thrombin (read-out: Thrombin Ki) were less than 500 nM, 10000 to 25000 nM and greater than 25 µM, respectively.

For `C[C@H](NC(=O)[C@H]1C[C@H](Cc2ccc(-c3ccccc3)cc2)CN1)C(=O)NCc1cnc2[nH]cc(Cl)c2c1` [compound 1356, (2R,4S)-4-([1,1′-Biphenyl]-4-ylmethyl)-N-((S)-1-(((3-chloro-1H-pyrrolo[2,3-b]pyridin-5-yl)methyl)amino)-1-oxopropan-2-yl)pyrrolidine-2-carboxamide Di-trifluoroacetate salt], the Ki at MASP-2 (CCP1-CCP2-SP) (read-out: MASP-2 Ki) was less than 500 nM; at mMASP-2 it was less than 500 nM; on human α-thrombin (read-out: Thrombin Ki), greater than 25 µM. Moreover, on MASP-2 (CCP1-CCP2-SP), the “MASP-2 vs. thrombin selectivity” value is “**** (≥100-fold)”.

For `Cc1nc(N)ccc1CNC(=O)[C@H](C)NC(=O)[C@H]1C[C@H](Cc2ccc(-c3cccnc3)cc2)CN1` [compound 1357, (2R,4S)—N—((S)-1-(((6-Amino-2-methylpyridin-3-yl)methyl)amino)-1-oxopropan-2-yl)-4-(4-(pyridin-3-yl)benzyl)pyrrolidine-2-carboxamide Di-trifluoroacetate salt], the Ki was less than 500 nM at MASP-2 (CCP1-CCP2-SP) (read-out: MASP-2 Ki), less than 500 nM on mMASP-2 and greater than 25 µM on human α-thrombin (read-out: Thrombin Ki). For the same compound, at MASP-2 (CCP1-CCP2-SP), the “MASP-2 vs. thrombin selectivity” value is on record as “**** (≥100-fold)”.

As to `C[C@H](NC(=O)[C@H]1C[C@H](c2ccccc2)CN1)C(=O)NCc1cc(Cl)cnc1N` [compound 1358, (2R,4R)—N—((S)-1-(((2-Amino-5-chloropyridin-3-yl)methyl)amino)-1-oxopropan-2-yl)-4-phenylpyrrolidine-2-carboxamide Di-trifluoroacetate salt], the Ki at MASP-2 (CCP1-CCP2-SP) was 500 to 2500 nM; on mMASP-2, greater than 25000 nM; at human α-thrombin (read-out: Thrombin Ki) it was greater than 25 µM.
